Active and inactive are the calls of the source.
Experiments:
[1] = biological target: Aspartyl aminopeptidase (Plasmodium falciparum 3D7, UniProt Q8I2J3); assay: Counterscreen for inhibitors of M1 and M17 aminopeptidases: QFRET-based biochemical high throughput dose response assay for inhibitors of the Plasmodium falciparum M18 Aspartyl Aminopeptidase (PFM18AAP). [Related PubChem assays: 1619 (Screening assay (M17LAP inhibitors).), 1445 (Screening assay (M1AAP inhibitors).)]
[2] = biological target: Procathepsin L (Homo sapiens, UniProt P07711); assay: CTSL1 protease inhibition – biochemical, QFRET, 1536-well, counter-screen for M1/M17 aminopeptidase inhibitor project, dose response (AID 2214)
[3] = test system: Escherichia coli; assay: microbe, parasite or virus in culture
[4] = biological target: T1, Leucine aminopeptidase (Plasmodium falciparum 3D7, UniProt Q8IL11); assay: P. falciparum M17LAP inhibitors, primary screen, biochemical, fluorogenic H-Leu-NHMec substrate, 1536-well (AID 1619); type: functional
T1 sequence (Q8IL11 whole entry): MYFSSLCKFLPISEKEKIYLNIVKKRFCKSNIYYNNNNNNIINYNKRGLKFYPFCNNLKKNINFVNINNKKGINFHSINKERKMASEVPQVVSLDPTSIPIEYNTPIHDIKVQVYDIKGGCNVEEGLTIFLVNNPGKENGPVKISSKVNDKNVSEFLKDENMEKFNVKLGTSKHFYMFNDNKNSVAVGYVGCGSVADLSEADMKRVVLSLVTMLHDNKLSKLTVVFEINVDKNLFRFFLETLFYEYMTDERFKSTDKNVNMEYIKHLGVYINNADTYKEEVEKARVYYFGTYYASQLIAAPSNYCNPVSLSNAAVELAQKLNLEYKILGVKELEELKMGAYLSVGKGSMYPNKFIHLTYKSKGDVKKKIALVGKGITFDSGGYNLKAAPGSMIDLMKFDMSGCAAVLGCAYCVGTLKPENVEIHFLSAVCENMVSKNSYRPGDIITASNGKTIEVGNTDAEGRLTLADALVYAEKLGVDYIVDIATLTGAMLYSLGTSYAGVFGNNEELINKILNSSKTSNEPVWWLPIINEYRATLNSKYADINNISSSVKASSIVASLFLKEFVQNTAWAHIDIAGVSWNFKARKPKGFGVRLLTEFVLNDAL

[5] = test system: Jurkat; assay: SAR Analysis of small molecule inhibitors of T-cell specific antigen receptor-induced NF-kB activation in a Jurkat cell line using a luminescence assay - Set 2. [Related pubchem assays (depositor defined):AID435003, AID435012, AID465]; type: functional, cell-based; settings: Homo sapiens
[6] = test system: HEK293; assay: HEK293T cell viability loss, resazurin readout – resazurin fluorescence, cytotoxicity control for NF-kB activator project, SAR follow-up (AID 493251); type: functional, cell-based; settings: Homo sapiens
[7] = test system: HEK293; assay: SAR Analysis of small molecule inhibitors of T-cell specific antigen receptor-induced NF-kB activation in a HEK-293T cell line using a luminescence assay - Set 2. [Related pubchem assays (depositor defined):AID435003, AID435012, AID489026]; type: functional, cell-based; settings: Homo sapiens
[8] = biological target: T2, Histone-lysine N-methyltransferase NSD2 (Homo sapiens, UniProt O96028); type: biochemical
T2 sequence (O96028 whole entry): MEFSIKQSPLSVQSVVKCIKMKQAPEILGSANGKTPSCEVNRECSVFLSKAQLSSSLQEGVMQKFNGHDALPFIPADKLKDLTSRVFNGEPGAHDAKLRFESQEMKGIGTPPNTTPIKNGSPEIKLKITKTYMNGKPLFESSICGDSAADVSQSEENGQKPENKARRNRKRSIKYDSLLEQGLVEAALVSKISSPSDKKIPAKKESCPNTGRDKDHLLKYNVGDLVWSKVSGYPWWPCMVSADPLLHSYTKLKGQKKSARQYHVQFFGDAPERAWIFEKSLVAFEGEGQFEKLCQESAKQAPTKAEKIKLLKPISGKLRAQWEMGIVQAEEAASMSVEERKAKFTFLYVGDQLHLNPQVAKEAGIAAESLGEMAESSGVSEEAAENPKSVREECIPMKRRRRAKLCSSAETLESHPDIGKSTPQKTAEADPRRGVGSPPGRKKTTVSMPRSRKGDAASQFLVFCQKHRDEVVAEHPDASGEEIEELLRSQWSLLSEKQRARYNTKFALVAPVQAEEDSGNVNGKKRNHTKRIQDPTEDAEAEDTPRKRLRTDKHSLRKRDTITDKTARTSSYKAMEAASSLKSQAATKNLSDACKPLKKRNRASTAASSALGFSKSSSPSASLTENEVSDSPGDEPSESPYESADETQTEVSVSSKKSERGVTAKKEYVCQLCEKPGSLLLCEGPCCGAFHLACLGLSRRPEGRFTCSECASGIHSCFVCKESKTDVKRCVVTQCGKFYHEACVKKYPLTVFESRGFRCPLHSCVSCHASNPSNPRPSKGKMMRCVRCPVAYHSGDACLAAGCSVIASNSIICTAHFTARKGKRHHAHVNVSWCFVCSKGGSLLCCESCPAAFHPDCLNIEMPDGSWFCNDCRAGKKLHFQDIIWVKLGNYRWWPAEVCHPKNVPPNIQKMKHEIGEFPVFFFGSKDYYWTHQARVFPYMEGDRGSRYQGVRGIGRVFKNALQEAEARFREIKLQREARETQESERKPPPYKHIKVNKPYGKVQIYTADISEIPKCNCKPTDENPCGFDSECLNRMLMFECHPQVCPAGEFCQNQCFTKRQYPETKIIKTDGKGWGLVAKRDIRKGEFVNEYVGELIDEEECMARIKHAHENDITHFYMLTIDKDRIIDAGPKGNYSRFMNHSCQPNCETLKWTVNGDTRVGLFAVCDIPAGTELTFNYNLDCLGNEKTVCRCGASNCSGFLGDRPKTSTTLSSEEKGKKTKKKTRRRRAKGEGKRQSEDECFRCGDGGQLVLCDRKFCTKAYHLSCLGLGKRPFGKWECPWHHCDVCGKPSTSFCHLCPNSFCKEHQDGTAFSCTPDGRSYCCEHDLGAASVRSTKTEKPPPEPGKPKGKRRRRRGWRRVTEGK

[9] = biological target: T3, Microphthalmia-associated transcription factor (Homo sapiens, UniProt O75030); assay: reducers of TRPM1 reporter luminescence, concentration series – cell-based, SK-MEL-5, cherry-picked, set 3, MITF inhibitor project, dose response (AID 493073); type: functional;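 note: SK-MEL-5 melanoma cells with luciferase driven by the MITF target TRPM1 promoter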
T3 sequence (O75030 whole entry): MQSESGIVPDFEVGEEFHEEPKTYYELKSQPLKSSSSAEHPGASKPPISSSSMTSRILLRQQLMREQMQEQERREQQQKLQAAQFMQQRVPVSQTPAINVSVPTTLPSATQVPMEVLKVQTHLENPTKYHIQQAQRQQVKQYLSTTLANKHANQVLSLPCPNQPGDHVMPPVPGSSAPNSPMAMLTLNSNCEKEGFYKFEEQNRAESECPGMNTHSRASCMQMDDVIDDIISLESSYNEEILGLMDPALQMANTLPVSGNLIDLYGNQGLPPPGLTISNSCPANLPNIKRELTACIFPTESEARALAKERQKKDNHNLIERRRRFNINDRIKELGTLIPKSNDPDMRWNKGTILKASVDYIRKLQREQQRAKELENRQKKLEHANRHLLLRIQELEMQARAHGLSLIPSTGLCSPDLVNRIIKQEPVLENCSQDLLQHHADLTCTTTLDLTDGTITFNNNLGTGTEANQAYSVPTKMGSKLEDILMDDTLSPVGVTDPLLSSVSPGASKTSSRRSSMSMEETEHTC

[10] = test system: A-375; assay: MITF: Counter assay: A375 proliferation Measured in Cell-Based System Using Plate Reader - 2084-03_Inhibitor_Dose_DryPowder_Activity. [Related pubchem assays (depositor defined):AID488944]; type: functional; settings: Homo sapiens
[11] = microbe, parasite or virus in culture; type: functional; settings: Mycobacterium tuberculosis

Chain of Procathepsin L (P07711 whole entry): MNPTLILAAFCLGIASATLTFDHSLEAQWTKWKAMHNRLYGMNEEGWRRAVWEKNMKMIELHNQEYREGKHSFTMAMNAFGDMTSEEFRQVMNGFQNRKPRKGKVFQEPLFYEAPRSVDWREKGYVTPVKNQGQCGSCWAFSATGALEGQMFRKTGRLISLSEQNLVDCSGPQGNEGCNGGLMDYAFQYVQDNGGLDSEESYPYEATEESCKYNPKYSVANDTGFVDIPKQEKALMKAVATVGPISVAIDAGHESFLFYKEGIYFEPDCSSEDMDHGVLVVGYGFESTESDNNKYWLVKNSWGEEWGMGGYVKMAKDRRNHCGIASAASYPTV
Chain of Aspartyl aminopeptidase (Q8I2J3 whole entry): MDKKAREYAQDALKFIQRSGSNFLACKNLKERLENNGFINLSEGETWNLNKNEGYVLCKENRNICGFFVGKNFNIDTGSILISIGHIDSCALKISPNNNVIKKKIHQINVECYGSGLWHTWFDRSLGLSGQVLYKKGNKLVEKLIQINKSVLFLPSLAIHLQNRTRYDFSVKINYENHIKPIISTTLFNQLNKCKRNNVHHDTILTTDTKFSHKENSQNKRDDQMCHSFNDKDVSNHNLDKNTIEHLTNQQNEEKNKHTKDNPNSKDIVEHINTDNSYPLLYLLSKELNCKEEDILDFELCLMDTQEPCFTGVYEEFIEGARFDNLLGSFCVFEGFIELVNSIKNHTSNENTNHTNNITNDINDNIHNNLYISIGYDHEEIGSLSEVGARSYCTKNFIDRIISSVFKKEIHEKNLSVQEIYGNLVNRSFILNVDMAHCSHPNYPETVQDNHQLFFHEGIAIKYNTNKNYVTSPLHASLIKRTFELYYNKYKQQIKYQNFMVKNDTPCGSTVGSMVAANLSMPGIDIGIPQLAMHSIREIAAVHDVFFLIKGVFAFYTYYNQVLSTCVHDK

COc1ccc2nc(SCC(=O)Nc3cc(OC)c(OC)cc3C(=O)O)c(C)cc2c1
IC50 [1]: > 73.5 µM (not active)
IC50 [2]: > 59.6 µM (not active)
AC50 [3]: 27.6 µM (active)
IC50 [4]: < 1 µM (active)

CCOc1ccc(-c2nc(CS(=O)(=O)CC(=O)NCc3ccc(F)cc3)c(C)o2)cc1
IC50 [5]: > 79 µM (inactive)
IC50 [6]: > 80 µM (inactive)
IC50 [7]: > 80 µM (inactive)

CC1C/C(=C\c2cccnc2)C(=O)/C(=C/c2cccnc2)C1 (stereo unspecified)
AC50 [8]: 19 µM (active)
AC50 [9]: 2.66 µM (active)
AC50 [10]: 21.5 µM (active)
CC50 [11]: 15.3 µM (active)
